According to US12447152B2, “Pharmaceutical combination of PRMT5 inhibitors” (Lupin Limited, priority 2019, dated 2025):

Legend:
[1] = system: MIA PaCa-2 human pancreatic cancer xenograft; test: In vivo efficacy study of Compound-24 with BI-3406, MIA PaCa-2 xenograft; conditions: Compound-24 alone, 1 mg/kg; day 15
Source text: The tumor-bearing mice were randomized once the tumors reached an average volume of approximately 155-159 mm^3 (Tumor volume range 107-248 mm^3).

[2] = system: MIA PaCa-2 human pancreatic cancer xenograft; test: In vivo efficacy study of Compound-24 with Afatinib, MIA PaCa-2 xenograft; parameters: species or system nude mice
Procedure: Compound-24 (1 mg/kg; b.i.d.), Afatinib (12.5 mg/kg; q.d.) and Compound-24+Afatinib (Compound-24; 1 mg/kg; b.i.d+Afatinib; 12.5 mg/kg; q.d.).

[3] = system: MIA PaCa-2 human pancreatic cancer xenograft; test: In vivo efficacy study of Compound-24 with Ulixertinib (BVD-523), MIA PaCa-2 xenograft (tumor fragments); parameters: species or system nude mice; conditions: Compound-24 alone, 1 mg/kg b.i.d.
Procedure: MIA PaCa-2 tumor fragments were implanted subcutaneously in nude mice. […] Compound-24 (1 mg/kg; b.i.d.), BVD-523 (25 mg/kg; b.i.d.) and Compound-24+BVD-523 (Compound-24; 1 mg/kg; b.i.d+BVD-523; 25 mg/kg; b.i.d.).

Compound	% tumor growth inhibition [1]	% tumor growth inhibition ([2]; Compound-24 alone, 1 mg/kg b.i.d.)	% tumor growth inhibition [3]	% tumor growth inhibition ([2]; Afatinib alone, 12.5 mg/kg q.d.)
Nc1nc2cc(CCC3=C[C@@H](n4ccc5c(N)ncnc54)[C@H](O)[C@@H]3O)cc(F)c2cc1Cl [Compound-24, (1S,2R,5R)-3-(2-(2-Amino-3-chloro-5-fluoroquinolin-7-yl)ethyl)-5-(4-amino-7H-pyrrolo[2,3-d]pyrimidin-7-yl)cyclopent-3-ene-1,2-diol]	47.88±12.12%	48.03±5.75%	58.83±9.92%	
CN(C)C/C=C/C(=O)Nc1cc2c(Nc3ccc(F)c(Cl)c3)ncnc2cc1O[C@H]1CCOC1 [Afatinib, (E)-N-(4-(3-chloro-4-fluoroanilino)-7-[(3S)-oxolan-3-yl)oxoquinazolin-6-yl)-4-(dimethylamino)but-2-enamide, reference compound]				58.68±5.14%
